ChEMBL document CHEMBL1201862, “PubChem BioAssay data set” (2004)
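Cultured in 96-well plates, cells were exposed to test compound for 48 hours across five concentrations. GI50 marks 50% less growth.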 Active and inactive are the calls of the source. Cut-off read from the data, not from the text of the source: active = GI50 up to about 1.1 µM and inactive = higher.

Legend:
Assay in all cases: inhibition of tumour cell growth, NCI panel, 48 h
RXF 393 = system: RXF 393
Malme-3M = system: Malme-3M
NCI-H460 = system: NCI-H460
Hs-578T = system: Hs-578T
OVCAR-3 = system: OVCAR-3
MDA-MB-435 = system: MDA-MB-435
IGROV-1 = system: IGROV-1
MDA-MB-231 = system: MDA-MB-231
DU-145 = system: DU-145
EKVX = system: EKVX
786-0 = system: 786-0
LOX IMVI = system: LOX IMVI
ACHN = system: ACHN
SK-MEL-2 = system: SK-MEL-2
MOLT-4 = system: MOLT-4
CAKI-1 = system: CAKI-1
CCRF-CEM = system: CCRF-CEM
U-251 = system: U-251
PC-3 = system: PC-3
HT-29 = system: HT-29
HCT-15 = system: HCT-15
SK-MEL-28 = system: SK-MEL-28
A498 = system: A498
SF-268 = system: SF-268
SF-295 = system: SF-295
HCT-116 = system: HCT-116
NCI/ADR-RES = system: NCI/ADR-RES
MDA-N = system: MDA-N
MCF7 = system: MCF7
NCI-H23 = system: NCI-H23
SF-539 = system: SF-539
BT-549 = system: BT-549
OVCAR-4 = system: OVCAR-4
UACC-62 = system: UACC-62
OVCAR-5 = system: OVCAR-5
SK-MEL-5 = system: SK-MEL-5
KM12 = system: KM12
SK-OV-3 = system: SK-OV-3
M14 = system: M14
UACC-257 = system: UACC-257
TK-10 = system: TK-10
HL-60 = system: HL-60
OVCAR-8 = system: OVCAR-8
SN12C = system: SN12C
SW-620 = system: SW-620
RPMI-8226 = system: RPMI-8226
HOP-62 = system: HOP-62
NCI-H522 = system: NCI-H522
T47D = system: T47D
A549 = system: A549
HCC 2998 = system: HCC 2998
COLO 205 = system: COLO 205
SNB-19 = system: SNB-19

Structure (SMILES): CC(C)=c1sc(=C(C)C)c2c1=NC(C)(C)N=2
- GI50 (RXF 393): > 100 µM (inactive)
- GI50 (Malme-3M): > 100 µM (inactive)
- GI50 (NCI-H460): 43.7 µM (inactive)
- GI50 (Hs-578T): 53.6 µM (inactive)
- GI50 (OVCAR-3): 72.6 µM (inactive)
- GI50 (MDA-MB-435): > 100 µM (inactive)
- GI50 (IGROV-1): 42.1 µM (inactive)
- GI50 (MDA-MB-231): > 100 µM (inactive)
- GI50 (DU-145): 58.3 µM (inactive)
- GI50 (EKVX): 57.9 µM (inactive)
- GI50 (786-0): > 100 µM (inactive)
- GI50 (LOX IMVI): 27 µM (inactive)
- GI50 (ACHN): 37.5 µM (inactive)
- GI50 (SK-MEL-2): 26.7 µM (inactive)
- GI50 (MOLT-4): 42.4 µM (inactive)
- GI50 (CAKI-1): 77.1 µM (inactive)
- GI50 (CCRF-CEM): 44.3 µM (inactive)
- GI50 (U-251): 46 µM (inactive)
- GI50 (PC-3): 45.9 µM (inactive)
- GI50 (HT-29): 74.6 µM (inactive)
- GI50 (HCT-15): 47.8 µM
- GI50 (SK-MEL-28): 73.6 µM (inactive)
- GI50 (A498): 87.5 µM (inactive)
- GI50 (SF-268): 64.9 µM (inactive)
- GI50 (SF-295): 75.5 µM (inactive)
- GI50 (HCT-116): 50.5 µM (inactive)
- GI50 (NCI/ADR-RES): > 100 µM (inactive)
- GI50 (MDA-N): 65.6 µM (inactive)
- GI50 (MCF7): 48.3 µM (inactive)
- GI50 (NCI-H23): 53.7 µM (inactive)
- GI50 (SF-539): > 100 µM (inactive)
- GI50 (BT-549): 67.3 µM (inactive)
- GI50 (OVCAR-4): > 100 µM (inactive)
- GI50 (UACC-62): 37.4 µM (inactive)
- GI50 (OVCAR-5): 36.5 µM (inactive)
- GI50 (SK-MEL-5): 79.6 µM (inactive)
- GI50 (KM12): 78.9 µM (inactive)
- GI50 (SK-OV-3): > 100 µM (inactive)
- GI50 (M14): 77.4 µM (inactive)
- GI50 (UACC-257): 30.9 µM (inactive)
- GI50 (TK-10): > 100 µM (inactive)
- GI50 (HL-60): 57.4 µM (inactive)
- GI50 (OVCAR-8): 94 µM (inactive)
- GI50 (SN12C): 58.5 µM (inactive)
- GI50 (SW-620): 72.6 µM (inactive)
- GI50 (RPMI-8226): 37.2 µM (inactive)
- GI50 (HOP-62): > 100 µM (inactive)
- GI50 (NCI-H522): 32.9 µM (inactive)
- GI50 (T47D): 52.8 µM (inactive)
- GI50 (A549): 51.5 µM (inactive)
- GI50 (HCC 2998): 27.5 µM (inactive)
- GI50 (COLO 205): 87.3 µM (inactive)
- GI50 (SNB-19): > 100 µM (inactive)
